# From PMC10065276, “Enhanced therapeutic window for antimicrobial Pept-ins by investigating their structure-activity relationship” (PLOS ONE, 2023)
# Residues, ends and D or L forms follow the SMILES beside them.
# System: E. coli BL21
# Conditions: BL21, 17 h
# Procedure: The peptide MIC was determined via the broth microdilution assay according to the EUCAST guideline, using 96-well polystyrene flat-bottom microtiter plates (BD Biosciences). Briefly, a single colony was inoculated in 5 mL Mueller-Hinton (MH) medium and incubated, while shaking at 37°C, to the end-exponential growth phase. The bacterial culture was subsequently diluted to 0.005 McFarland (McF) (~1.5x10^6 CFU/mL) with fresh MH medium. Two-fold serial peptide-dilutions were prepared in 50 μL MH medium resulting in a concentration range of 0.75 to 100 μg/mL (at least three wells for each concentration). Afterwards, 50 μL of the freshly diluted bacterial suspension (0.005 McF) was mixed with different peptide concentrations in the 96-well plate, performed in triplicates. The plate was ultimately incubated at 37°C overnight without shaking for 17 hours. The MIC was determined as the lowest peptide concentration without visible bacterial growth.
row,Compound,BL21 MIC
1,CC(C)C[C@H](NC(=O)CNC(=O)[C@H](CCCNC(=N)N)NC(=O)[C@@H]1CCCN1C(=O)[C@H](CCCNC(=N)N)NC(=O)[C@H](CCCNC(=N)N)NC(=O)[C@@H](NC(=O)[C@H](CC(C)C)NC(=O)[C@H](Cc1ccccc1)NC(=O)[C@H](CC(C)C)NC(=O)CNC(=O)[C@H](CC(C)C)NC(=O)CNC(=O)[C@@H](N)CCCNC(=N)N)C(C)C)C(=O)NCC(=O)N[C@@H](CC(C)C)C(=O)N[C@@H](Cc1ccccc1)C(=O)N[C@@H](CC(C)C)C(=O)N[C@H](C(=O)N[C@@H](CCCNC(=N)N)C(=O)N[C@@H](CCCNC(=N)N)C(=O)O)C(C)C [A5F (P2)] (H-RGLGLFLVRRPRGLGLFLVRR-OH),12.50 µg/mL
2,CC(C)C[C@H](NC(=O)CNC(=O)[C@H](CC(C)C)NC(=O)CNC(=O)[C@H](CCCNC(=N)N)NC(=O)[C@@H]1CCCN1C(=O)[C@H](CCCNC(=N)N)NC(=O)[C@H](CCCNC(=N)N)NC(=O)[C@@H](NC(=O)[C@H](CC(C)C)NC(=O)CNC(=O)[C@H](CC(C)C)NC(=O)CNC(=O)[C@H](CC(C)C)NC(=O)CNC(=O)[C@@H](N)CCCNC(=N)N)C(C)C)C(=O)NCC(=O)N[C@@H](CC(C)C)C(=O)N[C@H](C(=O)N[C@@H](CCCNC(=N)N)C(=O)N[C@@H](CCCNC(=N)N)C(=O)O)C(C)C [A5G (P2)] (H-RGLGLGLVRRPRGLGLGLVRR-OH),25.00 µg/mL
3,CC[C@H](C)[C@H](NC(=O)[C@H](CC(C)C)NC(=O)CNC(=O)[C@H](CC(C)C)NC(=O)CNC(=O)[C@H](CCCNC(=N)N)NC(=O)[C@@H]1CCCN1C(=O)[C@H](CCCNC(=N)N)NC(=O)[C@H](CCCNC(=N)N)NC(=O)[C@@H](NC(=O)[C@H](CC(C)C)NC(=O)[C@@H](NC(=O)[C@H](CC(C)C)NC(=O)CNC(=O)[C@H](CC(C)C)NC(=O)CNC(=O)[C@@H](N)CCCNC(=N)N)[C@@H](C)CC)C(C)C)C(=O)N[C@@H](CC(C)C)C(=O)N[C@H](C(=O)N[C@@H](CCCNC(=N)N)C(=O)N[C@@H](CCCNC(=N)N)C(=O)O)C(C)C [A5I (P2)] (H-RGLGLILVRRPRGLGLILVRR-OH),6.25 µg/mL
4,CC(C)C[C@H](NC(=O)CNC(=O)[C@H](CCCNC(=N)N)NC(=O)[C@@H]1CCCN1C(=O)[C@H](CCCNC(=N)N)NC(=O)[C@H](CCCNC(=N)N)NC(=O)[C@@H](NC(=O)[C@H](CC(C)C)NC(=O)[C@H](CC(C)C)NC(=O)[C@H](CC(C)C)NC(=O)CNC(=O)[C@H](CC(C)C)NC(=O)CNC(=O)[C@@H](N)CCCNC(=N)N)C(C)C)C(=O)NCC(=O)N[C@@H](CC(C)C)C(=O)N[C@@H](CC(C)C)C(=O)N[C@@H](CC(C)C)C(=O)N[C@H](C(=O)N[C@@H](CCCNC(=N)N)C(=O)N[C@@H](CCCNC(=N)N)C(=O)O)C(C)C [A5L (P2)] (H-RGLGLLLVRRPRGLGLLLVRR-OH),12.50 µg/mL
5,CSCC[C@H](NC(=O)[C@H](CC(C)C)NC(=O)CNC(=O)[C@H](CC(C)C)NC(=O)CNC(=O)[C@H](CCCNC(=N)N)NC(=O)[C@@H]1CCCN1C(=O)[C@H](CCCNC(=N)N)NC(=O)[C@H](CCCNC(=N)N)NC(=O)[C@@H](NC(=O)[C@H](CC(C)C)NC(=O)[C@H](CCSC)NC(=O)[C@H](CC(C)C)NC(=O)CNC(=O)[C@H](CC(C)C)NC(=O)CNC(=O)[C@@H](N)CCCNC(=N)N)C(C)C)C(=O)N[C@@H](CC(C)C)C(=O)N[C@H](C(=O)N[C@@H](CCCNC(=N)N)C(=O)N[C@@H](CCCNC(=N)N)C(=O)O)C(C)C [A5M (P2)] (H-RGLGLMLVRRPRGLGLMLVRR-OH),6.25 µg/mL
6,CC(C)C[C@H](NC(=O)CNC(=O)[C@H](CCCNC(=N)N)NC(=O)[C@@H]1CCCN1C(=O)[C@H](CCCNC(=N)N)NC(=O)[C@H](CCCNC(=N)N)NC(=O)[C@@H](NC(=O)[C@H](CC(C)C)NC(=O)[C@H](Cc1c[nH]c2ccccc12)NC(=O)[C@H](CC(C)C)NC(=O)CNC(=O)[C@H](CC(C)C)NC(=O)CNC(=O)[C@@H](N)CCCNC(=N)N)C(C)C)C(=O)NCC(=O)N[C@@H](CC(C)C)C(=O)N[C@@H](Cc1c[nH]c2ccccc12)C(=O)N[C@@H](CC(C)C)C(=O)N[C@H](C(=O)N[C@@H](CCCNC(=N)N)C(=O)N[C@@H](CCCNC(=N)N)C(=O)O)C(C)C [A5W (P2)] (H-RGLGLWLVRRPRGLGLWLVRR-OH),12.50 µg/mL
7,CC(C)C[C@H](NC(=O)CNC(=O)[C@H](CCCNC(=N)N)NC(=O)[C@@H]1CCCN1C(=O)[C@H](CCCNC(=N)N)NC(=O)[C@H](CCCNC(=N)N)NC(=O)[C@@H](NC(=O)[C@H](CC(C)C)NC(=O)[C@H](Cc1ccc(O)cc1)NC(=O)[C@H](CC(C)C)NC(=O)CNC(=O)[C@H](CC(C)C)NC(=O)CNC(=O)[C@@H](N)CCCNC(=N)N)C(C)C)C(=O)NCC(=O)N[C@@H](CC(C)C)C(=O)N[C@@H](Cc1ccc(O)cc1)C(=O)N[C@@H](CC(C)C)C(=O)N[C@H](C(=O)N[C@@H](CCCNC(=N)N)C(=O)N[C@@H](CCCNC(=N)N)C(=O)O)C(C)C [A5Y (P2)] (H-RGLGLYLVRRPRGLGLYLVRR-OH),6.25 µg/mL
8,CC(C)C[C@H](NC(=O)CNC(=O)[C@H](CCCNC(=N)N)NC(=O)[C@@H]1CCCN1C(=O)[C@H](CCCNC(=N)N)NC(=O)[C@H](CCCNC(=N)N)NC(=O)[C@@H](NC(=O)CNC(=O)[C@H](C)NC(=O)[C@H](CC(C)C)NC(=O)CNC(=O)[C@H](CC(C)C)NC(=O)CNC(=O)[C@@H](N)CCCNC(=N)N)C(C)C)C(=O)NCC(=O)N[C@@H](CC(C)C)C(=O)N[C@@H](C)C(=O)NCC(=O)N[C@H](C(=O)N[C@@H](CCCNC(=N)N)C(=O)N[C@@H](CCCNC(=N)N)C(=O)O)C(C)C [L6G (P2)] (H-RGLGLAGVRRPRGLGLAGVRR-OH),100.00 µg/mL
9,CC(C)C[C@H](NC(=O)CNC(=O)[C@H](CCCNC(=N)N)NC(=O)[C@@H]1CCCN1C(=O)[C@H](CCCNC(=N)N)NC(=O)[C@H](CCCNC(=N)N)NC(=O)[C@H](Cc1c[nH]cn1)NC(=O)[C@H](Cc1c[nH]cn1)NC(=O)[C@H](C)NC(=O)[C@H](CC(C)C)NC(=O)CNC(=O)[C@H](CC(C)C)NC(=O)CNC(=O)[C@@H](N)CCCNC(=N)N)C(=O)NCC(=O)N[C@@H](CC(C)C)C(=O)N[C@@H](C)C(=O)N[C@@H](Cc1c[nH]cn1)C(=O)N[C@@H](Cc1c[nH]cn1)C(=O)N[C@@H](CCCNC(=N)N)C(=O)N[C@@H](CCCNC(=N)N)C(=O)O [P2_zero_tango_3] (H-RGLGLAHHRRPRGLGLAHHRR-OH),>100.00 µg/mL
10,CC(C)C[C@H](NC(=O)CNC(=O)[C@H](CCCNC(=N)N)NC(=O)[C@@H]1CCCN1C(=O)[C@H](CCCNC(=N)N)NC(=O)[C@H](CCCNC(=N)N)NC(=O)[C@@H]1CCCN1C(=O)[C@H](CC(C)C)NC(=O)[C@H](C)NC(=O)[C@H](CC(C)C)NC(=O)CNC(=O)[C@H](CC(C)C)NC(=O)CNC(=O)[C@@H](N)CCCNC(=N)N)C(=O)NCC(=O)N[C@@H](CC(C)C)C(=O)N[C@@H](C)C(=O)N[C@@H](CC(C)C)C(=O)N1CCC[C@H]1C(=O)N[C@@H](CCCNC(=N)N)C(=O)N[C@@H](CCCNC(=N)N)C(=O)O [P2_zero_tango_4] (H-RGLGLALPRRPRGLGLALPRR-OH),>100.00 µg/mL
11,CC(C)C[C@H](NC(=O)CNC(=O)[C@H](CCCNC(=N)N)NC(=O)[C@@H]1CCCN1C(=O)[C@H](CCCNC(=N)N)NC(=O)[C@H](CCCNC(=N)N)NC(=O)[C@@H](NC(=O)[C@H](CC(C)C)NC(=O)[C@H](CC(=O)O)NC(=O)[C@H](CC(C)C)NC(=O)CNC(=O)[C@H](CC(C)C)NC(=O)CNC(=O)[C@@H](N)CCCNC(=N)N)C(C)C)C(=O)NCC(=O)N[C@@H](CC(C)C)C(=O)N[C@@H](CC(=O)O)C(=O)N[C@@H](CC(C)C)C(=O)N[C@H](C(=O)N[C@@H](CCCNC(=N)N)C(=O)N[C@@H](CCCNC(=N)N)C(=O)O)C(C)C [P2_zero_tango_5] (H-RGLGLDLVRRPRGLGLDLVRR-OH),>100.00 µg/mL
